We go through 25 molecules from patent EP4563146A1 (IRBM S.P.A., priority 2023, dated 2025).

For one experiment, the system named is ZIKV replicon. Nature of the experiment: ZIKV replication inhibition assay (NanoLuc replicon in Vero cells). As to conditions: 72 h. In general terms: In antiviral work, replicon cells carry a viral genome segment that copies itself.
Experiment [1] has as its target Japanese encephalitis virus (JEV)-NS2B-NS3 protease (Japanese encephalitis virus, UniProt P32886, DEL1469-1493). The experiment is described as follows: JEV protease inhibition assay. In kind it is biochemical.
The target of experiment [2] is T1, West Nile Virus (WNV) NS2B-NS3 protease (West Nile virus, UniProt Q9Q6P4).
T1 construct: NS2B1423-1470); purchased R&D 2907-SE-020
The experiment is described as follows: WNV protease inhibition assay. The format is biochemical. As to conditions: Table 4; letter codes for IC50. The text has this:
WNV protease inhibition assay

Setting [3] is: Zika virus, Vero, read-out: ZIKA Cell_Nanoluc.
[4] abbreviates: read-out: JEV - NS3 protease, 600 nM enzyme, 10 µM Pyr-RTKR-AMC substrate, 25 °C.
Setting [5] is: Zika virus, Vero, read-out: ZIKA Cell_Nanoluc, Vero cells with stable ZIKV replicon, 72 h, Nano-Glo readout.
Where [6] appears, read: read-out: ZIKA Cell_Nanoluc, Vero cells with stable ZIKV replicon, Nano-Glo readout.

Where two headings read alike, the source gives them in different places.

For `COc1ncc(-c2ccc(C[n+]3cc([N-]C(=O)Nc4cc(NC(=O)c5ccccc5)cc(C(F)(F)F)c4)on3)cc2)c(C)n1` [Example 15], the EC50 with ZIKV replicon (setting [3]) lay within 0.1 to 1 µM. Further, the IC50 in experiment [1] (setting [4]) lay within 1 to 20 µM.
Taken in the same sequence, the figures for `COc1ncc(-c2ccc(C[n+]3cc([N-]C(=O)Nc4cc(NC(=O)Cc5ccc(Cl)cc5)cc(C(F)(F)F)c4)on3)cc2)c(C)n1` [Example 17] were 1 to 20 µM and above 20 µM.
Taken in the same sequence, the figures for `COc1ncc(-c2ccc(C[n+]3cc([N-]C(=O)Nc4cc(NC(=O)Cc5noc6ccccc56)cc(C(F)(F)F)c4)on3)cc2)c(C)n1` [Example 20] were above 20 µM and above 20 µM.
In the same order, the values of `COc1ncc(-c2ccc(C[n+]3cc([N-]C(=O)Nc4cc(NC(=O)Cc5ccc(CN)cc5)cc(C(F)(F)F)c4)on3)cc2)c(C)n1` [Example 22] are 1 to 20 µM and above 20 µM.
As to `N[C@H]1C[C@H]([n+]2cc([N-]C(=O)Nc3cc(NC(=O)Cc4ccccc4)cc(C(F)(F)F)c3)on2)C1` [Example 26, (3-((1R,3R)-3-Aminocyclobutyl)-1,2,3-oxadiazol-3-ium-5-yl)((3-(2-phenylacetamido)-5-(trifluoromethyl)phenyl)carbamoyl)amide], the EC50 with ZIKV replicon (setting [3]) was above 20 µM. For the same molecule, the IC50 in experiment [1] lay within 1 to 20 µM.
In the case of `CN(C)[C@H]1C[C@H]([n+]2cc([N-]C(=O)Nc3cc(NC(=O)Cc4ccccc4)cc(C(F)(F)F)c3)on2)C1` [Example 55, (3-((1R3R)-3-(Dimethylamino)cyclobutyl)-1,2,3-oxadiazol-3-ium-5-yl)((3-(2-phenyl-acetamido)-5-(trifluoromethyl)phenyl)-carbamoyl)amide], in the experiment with ZIKV replicon (setting [3]), the EC50 was 1 to 20 µM. This molecule displayed an IC50 in experiment [1] of 1 to 20 µM.
Turning to `NC[C@H]1CC[C@@H]([n+]2cc([N-]C(=O)Nc3cc(NC(=O)Cc4ccccc4)cc(C(F)(F)F)c3)on2)CC1` [Example 59, (3-((1S,4S)-4-(Aminomethyl)cyclohexyl)-1,2,3-oxadiazol-3-ium-5-yl)((3-(2-phenyl-acetamido)-5-(trifluoromethyl)phenyl)-carbamoyl)amide], the EC50 with ZIKV replicon (setting [3]) was 1 to 20 µM. This molecule also showed an IC50 in experiment [1] of 1 to 20 µM.
`O=C(Cc1ccccc1)Nc1cc(NC(=O)[N-]c2c[n+]([C@H]3CC[C@@H](CN4C(=O)c5ccccc5C4=O)CC3)no2)cc(C(F)(F)F)c1` [Example 60, (3-((1S,4S)-4-((1,3-Dioxoisoindolin-2-yl)methyl)cyclohexyl)-1,2,3-oxadiazol-3-ium-5-yl)((3-(2-phenylacetamido)-5-(trifluoromethyl)-phenyl)carbamoyl)amide]: the EC50 with ZIKV replicon (setting [3]) lay within 1 to 20 µM. For the same molecule, in experiment [1], the IC50 lay in the range of 1 to 20 µM.
In the case of `CN(C)C[C@H]1CC[C@@H]([n+]2cc([N-]C(=O)Nc3cc(NC(=O)Cc4ccccc4)cc(C(F)(F)F)c3)on2)CC1` [Example 61, (3-((1S,4S)- -4-((Dimethylamino)methyl)cyclohexyl)-1,2,3-oxadiazol-3-ium-5-yl)((3-(2-phenylacetamido)-5-(trifluoromethyl)phenyl)carbamoyl)amide], in the experiment on ZIKV replicon (setting [3]), the EC50 is 1 to 20 µM. Moreover, the IC50 in experiment [1] lay in the range of 1 to 20 µM.
As for `CC(=O)NC[C@H]1CC[C@@H]([n+]2cc([N-]C(=O)Nc3cc(NC(=O)Cc4ccccc4)cc(C(F)(F)F)c3)on2)CC1` [Example 62, (3-((1S,4S)-4-(Acetamidomethyl)cyclohexyl)-1,2,3-oxadiazol-3-ium-5-yl)((3-(2-phenylacetamido)-5-(trifluoromethyl)phenyl)carbamoyl)amide], the EC50 with ZIKV replicon (setting [3]) is above 20 µM. This molecule also returned an IC50 in experiment [1] of 1 to 20 µM.
Taken in the same sequence, the figures for `N[C@H]1CC[C@@H]([n+]2cc([N-]C(=O)Nc3cc(NC(=O)Cc4ccccc4)cc(C(F)(F)F)c3)on2)CC1` [Example 91, (3-((1S,4S)-4-Aminocyclohexyl)-1,2,3-oxadiazol-3-ium-5-yl)((3-(2-phenylacetamido)-5-(trifluoromethyl)phenyl)carbamoyl)amide] were above 20 µM and 1 to 20 µM.
Taken in the same sequence, the figures for `N[C@H]1CC[C@H]([n+]2cc([N-]C(=O)Nc3cc(NC(=O)Cc4ccccc4)cc(C(F)(F)F)c3)on2)CC1` [Example 92, (3-((1R,4R)-4-Aminocyclohexyl)-1,2,3-oxadiazol-3-ium-5-yl)((3-(2-phenylacetamido)-5-(trifluoromethyl)phenyl)carbamoyl)amide] were above 20 µM and 1 to 20 µM.
In the same order, the values of `NC[C@H]1CC[C@H]([n+]2cc([N-]C(=O)Nc3cc(NC(=O)Cc4ccccc4)cc(C(F)(F)F)c3)on2)CC1` [Example 93, (3-((1R,4R)-4-(Aminomethyl)cyclohexyl)-1,2,3-oxadiazol-3-ium-5-yl)((3-(2-phenyl-acetamido)-5-(trifluoromethyl)phenyl)-carbamoyl)amide] are 1 to 20 µM and 0.1 to 1 µM.
With `CN(C)C[C@H]1CC[C@H]([n+]2cc([N-]C(=O)Nc3cc(NC(=O)Cc4ccccc4)cc(C(F)(F)F)c3)on2)CC1` [Example 94, (3-((1R,4R)-4-((Dimethylamino)methyl)-cyclohexyl)-1,2,3-oxadiazol-3-ium-5-yl)((3-(2-phenylacetamido)-5-(trifluoromethyl)phenyl)-carbamoyl)amide], the IC50 in experiment [1] (setting [4]) was 1 to 20 µM.
As to `CN(C)[C@H]1CC[C@@H]([n+]2cc([N-]C(=O)Nc3cc(NC(=O)Cc4ccccc4)cc(C(F)(F)F)c3)on2)CC1` [Example 95, (3-((1S,4S)-4-(Dimethylamino)cyclohexyl)-1,2,3-oxadiazol-3-ium-5-yl)((3-(2-phenylacetamido)-5-(trifluoromethyl)phenyl)-carbamoyl)amide], the EC50 with ZIKV replicon (setting [3]) lay in the range of 1 to 20 µM. For the same molecule, the IC50 in experiment [1] lay within 1 to 20 µM.
`CN(C)[C@H]1CC[C@H]([n+]2cc([N-]C(=O)Nc3cc(NC(=O)Cc4ccccc4)cc(C(F)(F)F)c3)on2)CC1` [Example 96, (3-((1R,4R)-4-(dimethylamino)cyclohexyl)-1,2,3-oxadiazol-3-ium-5-yl)((3-(2-phenylacetamido)-5-(trifluoromethyl)phenyl)-carbamoyl)amide]: the EC50 in the experiment on ZIKV replicon (setting [3]) lay in the range of 1 to 20 µM. The molecule also showed an IC50 in experiment [1] of 1 to 20 µM.
On to `CC(=O)Nc1ccc(NC(=O)[N-]c2c[n+](Cc3ccc(-c4c(C)ncnc4C)cc3)no2)cc1C(F)(F)F` [Example 264, ((4-Acetamido-3-(trifluoromethyl)phenyl)-carbamoyl)(3-(4-(4,6-dimethylpyrimidin-5-yl)benzyl)-1,2,3-oxadiazol-3-ium-5-yl)amide], for which, in the experiment on ZIKV replicon (setting [5]), the EC50 is below 0.1 µM. The IC50 in experiment [2] was below 0.1 µM.
Take `Cc1ccccc1CC(=O)Nc1cc(NC(=O)[N-]c2c[n+](C3CCCC(CO)C3)no2)cc(C(F)(F)F)c1` (stereo not shown) [Example 265, (3-(3-(Hydroxymethyl)cyclohexyl)-1,2,3-oxadiazol-3-ium-5-yl)((3-(2-(o-tolyl)acetamido)-5-(trifluoromethyl)phenyl)carbamoyl)amide]: the EC50 in the experiment with ZIKV replicon (setting [5]) is 1 to 20 µM. In experiment [2], this molecule gave an IC50 of 0.1 to 1 µM.
For the molecule `O=C([N-]c1c[n+](Cc2ccc(-c3cncnc3)cc2)no1)Nc1ccnc(C(F)(F)F)c1` [Example 266, (3-(4-(Pyrimidin-5-yl)benzyl)-1,2,3-oxadiazol-3-ium-5-yl)((2-(trifluoromethyl)pyridin-4-yl)carbamoyl)amide], the EC50 in the experiment with ZIKV replicon (setting [6]) is below 0.1 µM. In experiment [2], this molecule showed an IC50 below 0.1 µM.
As for `Cc1ccccc1CC(=O)Nc1cc(NC(=O)[N-]c2c[n+]([C@@H]3CCC[C@@H](C(N)=O)C3)no2)cc(C(F)(F)F)c1` [Example 267, (3-((1R,3R)-3-Carbamoylcyclohexyl)-1,2,3-oxadiazol-3-ium-5-yl)((3-(2-(o-tolyl)acetamido)-5-(trifluoromethyl)phenyl)carbamoyl)amide], the EC50 in the experiment with ZIKV replicon (setting [6]) is 1 to 20 µM. Further, in experiment [2], the IC50 lay in the range of 0.1 to 1 µM.
With `Cc1nn(C)c(C)c1-c1ccc(C[n+]2cc([N-]C(=O)Nc3ccnc(C(F)(F)F)c3)on2)cc1` [Example 268, ((2-(Trifluoromethyl)pyridin-4-yl)carbamoyl)(3-(4-(1,3,5-trimethyl-1H-pyrazol-4-yl)benzyl)-1,2,3-oxadiazol-3-ium-5-yl)amide], the EC50 in the experiment on ZIKV replicon (setting [5]) is below 0.1 µM. The IC50 in experiment [2] was below 0.1 µM.
For `Cc1ncnc(C)c1-c1ccc(C[n+]2cc([N-]C(=O)Nc3cc(C(F)(F)F)c4ncccc4c3)on2)cc1` [Example 272, (3-(4-(4,6-Dimethylpyrimidin-5-yl)benzyl)-1,2,3-oxadiazol-3-ium-5-yl)((8-(trifluoromethyl)-quinolin-6-yl)carbamoyl)amide], the EC50 with ZIKV replicon (setting [5]) was in the range of 0.1 to 1 µM. The same molecule gave an IC50 in experiment [2] of 1 to 20 µM.
`CNC(=O)c1ccc(NC(=O)[N-]c2c[n+](Cc3ccc(-c4c(C)ncnc4C)cc3)no2)cc1C(F)(F)F` [Example 273, (3-(4-(4,6-Dimethylpyrimidin-5-yl)benzyl)-1,2,3-oxadiazol-3-ium-5-yl)((4-(methyl-carbamoyl)-3-(trifluoromethyl)phenyl)carbamoyl)amide]: the EC50 in the experiment with ZIKV replicon (setting [5]) was 1 to 20 µM. In addition, the IC50 in experiment [2] is 0.1 to 1 µM.
Turning to “(3-((1R,4R)-4-((Dimethylamino)methyl)-cyclohexyl)-1,2,3-oxadiazol-3-ium-5-yl)((3-(2-(3- methoxyphenyl)acetamido)-5-(trifluoromethyl)- phenyl)carbamoyl)amide [Example 152]”, the EC50 with ZIKV replicon (setting [6]) is 1 to 20 µM. Besides, the IC50 in experiment [2] is 0.1 to 1 µM.
For the molecule “((3-(2-(3-(Carboxymethyl)phenyl)acetamido)-5-(trifluoromethyl)phenyl)carbamoyl)(3-((1R,4R)-4-((dimethylamino)methyl)cyclohexyl)-1,2,3-oxadiazol-3-ium-5-yl)amide [Example 155]”, the EC50 in the experiment with ZIKV replicon (setting [6]) lay within 1 to 20 µM. In addition, the IC50 in experiment [2] lay within 0.1 to 1 µM.
